According to ChEMBL document CHEMBL1201862, “PubChem BioAssay data set” (2004):
Calls of active or inactive are those of the source.

Key:
[1] = system: Streptococcus sp. 'group A'; assay: growth inhibition of control SK(-) GAS strain, dose response, counter-screen for streptokinase expression inhibitor project, luminescence, kanamycin, BacTiterGlo, confirmation (AID 1900); format: functional, organism-based
Streptococcus = assay: Group A Streptococcus viability loss, dose response, counter-screen for streptokinase expression inhibitor project, luminescence, BacTiterGlo (AID 1915); format: functional, organism-based;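 further: potency for reduction of bacterial viability or growth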
Beta-galactosidase = Beta-galactosidase (Escherichia coli, UniProt Q8VNN2); assay: beta-galactosidase enzyme inhibitors and activators, dose response, artefact control for CCR6 antagonist project, biochemical, E. coli enzyme, set 3 (AID 504712); format: functional
[2] = target: Heat shock protein HSP 90-alpha (Homo sapiens, UniProt P07900); format: functional, organism-based
[3] = target: T1, RNA-binding protein pos-1 (Caenorhabditis elegans, UniProt G5EF15); assay: inhibitors of POS-1/mex-3 RNA binding, dose response, biochemical, fluorescence polarization (AID 1964);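 further: purified POS-1 fused to maltose binding protein made in E. coli; potency of compounds blocking POS-1 binding to fluorescent RNA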
T1 sequence (G5EF15 whole entry): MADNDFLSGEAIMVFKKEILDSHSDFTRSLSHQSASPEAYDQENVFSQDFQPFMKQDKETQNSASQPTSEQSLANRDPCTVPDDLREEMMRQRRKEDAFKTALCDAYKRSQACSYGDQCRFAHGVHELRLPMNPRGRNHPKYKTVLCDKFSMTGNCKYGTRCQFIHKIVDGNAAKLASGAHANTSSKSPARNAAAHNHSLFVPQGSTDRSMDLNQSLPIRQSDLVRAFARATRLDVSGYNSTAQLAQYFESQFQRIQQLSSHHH

[4] = target: T2, Zinc finger protein mex-5 (Caenorhabditis elegans, UniProt Q9XUB2); assay: MEX-5/TCR-2 RNA interaction inhibitors, dose response, biochemical, C. elegans, fluorescence polarization (AID 1960)
T2 sequence (Q9XUB2 whole entry): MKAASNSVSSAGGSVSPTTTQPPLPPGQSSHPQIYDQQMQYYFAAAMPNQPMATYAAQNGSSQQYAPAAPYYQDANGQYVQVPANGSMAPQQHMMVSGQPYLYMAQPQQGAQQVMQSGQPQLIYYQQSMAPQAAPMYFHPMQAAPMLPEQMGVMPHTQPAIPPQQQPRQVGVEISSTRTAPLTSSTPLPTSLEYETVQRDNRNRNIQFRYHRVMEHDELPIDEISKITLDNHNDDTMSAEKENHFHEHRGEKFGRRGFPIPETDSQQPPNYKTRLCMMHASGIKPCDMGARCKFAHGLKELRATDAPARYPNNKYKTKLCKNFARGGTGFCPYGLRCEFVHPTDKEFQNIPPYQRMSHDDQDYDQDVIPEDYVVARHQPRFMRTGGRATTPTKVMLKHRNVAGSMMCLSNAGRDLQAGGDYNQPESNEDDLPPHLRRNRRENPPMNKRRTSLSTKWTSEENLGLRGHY

[5] = target: Luciferin 4-monooxygenase (Photinus pyralis, UniProt P08659); assay: firefly luciferase enzyme inhibitors, dose response, biochemical, luminescence (AID 1891)
[6] = Luminescence Cell-Based Dose Confirmation HTS to Identify Inhibitors of Platelet Dense Granule Release. [Related pubchem assays: 1663 (Primary HTS), 1678 (Summary of Project)]; format: functional
HeLa = assay: HeLa cell cytotoxicity, dose response, cytotoxicity control, 24 h, cherry-picked samples (AID 504726); format: functional, cell-based; settings: Homo sapiens;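 further: potency for cytotoxicity as loss of luminescence signal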
[7] = target: T3, Lysine-specific demethylase 4C (Homo sapiens, UniProt Q9H3R0); assay: GASC-1 (JMJD2C) histone demethylase inhibitors, dose response, biochemical, DELFIA europium, cherry-picked samples (AID 488835); format: functional
T3 sequence (Q9H3R0 whole entry): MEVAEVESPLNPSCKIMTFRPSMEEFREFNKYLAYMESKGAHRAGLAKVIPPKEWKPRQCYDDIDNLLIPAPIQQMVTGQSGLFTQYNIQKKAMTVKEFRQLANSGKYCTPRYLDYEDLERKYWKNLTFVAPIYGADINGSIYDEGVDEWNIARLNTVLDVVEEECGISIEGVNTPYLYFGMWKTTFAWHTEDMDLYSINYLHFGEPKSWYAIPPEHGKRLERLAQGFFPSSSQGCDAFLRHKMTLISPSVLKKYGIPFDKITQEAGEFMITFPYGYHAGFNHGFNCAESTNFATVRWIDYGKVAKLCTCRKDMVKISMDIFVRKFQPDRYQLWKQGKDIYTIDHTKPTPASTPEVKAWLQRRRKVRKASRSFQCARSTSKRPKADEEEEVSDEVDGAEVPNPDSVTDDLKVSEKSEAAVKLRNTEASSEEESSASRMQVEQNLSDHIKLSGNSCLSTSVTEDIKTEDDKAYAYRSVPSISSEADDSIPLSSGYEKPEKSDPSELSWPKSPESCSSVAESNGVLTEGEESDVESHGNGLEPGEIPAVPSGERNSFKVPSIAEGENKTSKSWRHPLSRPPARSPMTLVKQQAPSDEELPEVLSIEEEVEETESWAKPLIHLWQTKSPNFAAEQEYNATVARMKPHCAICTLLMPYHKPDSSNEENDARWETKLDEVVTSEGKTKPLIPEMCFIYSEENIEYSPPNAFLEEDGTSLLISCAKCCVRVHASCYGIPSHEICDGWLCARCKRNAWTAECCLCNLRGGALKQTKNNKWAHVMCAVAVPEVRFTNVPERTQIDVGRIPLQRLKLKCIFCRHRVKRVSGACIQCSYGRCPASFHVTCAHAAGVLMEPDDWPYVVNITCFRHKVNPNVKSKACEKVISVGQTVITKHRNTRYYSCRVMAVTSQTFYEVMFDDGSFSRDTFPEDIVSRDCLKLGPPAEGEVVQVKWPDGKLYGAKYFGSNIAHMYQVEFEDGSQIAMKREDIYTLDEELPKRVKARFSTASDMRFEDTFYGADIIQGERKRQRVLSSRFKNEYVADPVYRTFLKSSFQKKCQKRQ

Large T antigen = Large T antigen (Simian virus 40, UniProt P03070); format: functional, Betapolyomavirus macacae;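 further: Confirmatory-stage PubChem screen for compounds that inhibit SV40 T antigen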
[8] = target: DNA dC->dU-editing enzyme APOBEC-3G (Homo sapiens, UniProt Q9HC16); assay: Dose Response confirmation of small molecule APOBEC3G DNA Deaminase Inhibitors via a fluorescence-based single-stranded DNA deaminase assay. [Related pubchem assays (depositor defined):AID493012, AID493028]; format: functional
[9] = NIH-3T3 fibroblast cytotoxicity, dose response, cytotoxicity control, cell-based, fluorescence, Alamar Blue, secondary assay (AID 2327); format: functional;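 further: NIH-3T3 mouse fibroblasts cultured with fluconazole at 8 µg/mL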
[10] = C. albicans growth with fluconazole, confirmation, fluorescence, retest (AID 2467); format: functional, cell-based
Hexokinase HKDC1 = target: T4, Hexokinase HKDC1 (Homo sapiens, UniProt Q2TB90); assay: HKDC1 hexokinase inhibitors, dose response, biochemical, W721R variant (AID 504729); format: functional
T4 sequence (Q2TB90 whole entry): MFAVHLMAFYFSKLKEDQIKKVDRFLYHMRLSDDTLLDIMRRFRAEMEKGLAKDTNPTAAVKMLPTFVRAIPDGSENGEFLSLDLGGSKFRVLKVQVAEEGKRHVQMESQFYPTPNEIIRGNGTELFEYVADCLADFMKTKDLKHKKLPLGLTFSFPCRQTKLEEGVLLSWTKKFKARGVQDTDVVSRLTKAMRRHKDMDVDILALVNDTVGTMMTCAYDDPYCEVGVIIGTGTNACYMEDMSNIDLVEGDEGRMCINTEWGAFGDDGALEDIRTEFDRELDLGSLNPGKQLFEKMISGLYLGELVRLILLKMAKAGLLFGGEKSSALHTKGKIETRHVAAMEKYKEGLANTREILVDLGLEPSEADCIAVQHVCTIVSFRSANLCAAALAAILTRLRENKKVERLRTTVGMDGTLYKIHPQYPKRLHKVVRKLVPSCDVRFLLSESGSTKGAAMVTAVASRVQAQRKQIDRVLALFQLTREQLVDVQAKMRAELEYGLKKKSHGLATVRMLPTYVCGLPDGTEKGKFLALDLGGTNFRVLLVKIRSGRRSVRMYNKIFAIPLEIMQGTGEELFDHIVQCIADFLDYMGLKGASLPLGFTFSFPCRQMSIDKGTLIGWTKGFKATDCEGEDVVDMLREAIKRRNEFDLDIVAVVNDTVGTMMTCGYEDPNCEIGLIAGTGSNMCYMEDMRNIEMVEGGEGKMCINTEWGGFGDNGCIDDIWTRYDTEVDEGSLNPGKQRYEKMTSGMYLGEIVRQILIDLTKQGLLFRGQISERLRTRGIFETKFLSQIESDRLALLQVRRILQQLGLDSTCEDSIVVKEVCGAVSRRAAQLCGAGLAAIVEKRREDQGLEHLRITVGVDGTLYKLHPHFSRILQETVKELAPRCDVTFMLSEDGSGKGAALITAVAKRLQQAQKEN

[11] = target: Induced myeloid leukemia cell differentiation protein Mcl-1 (Homo sapiens, UniProt Q07820); format: functional
Vero = Vero cell cytotoxicity, cytotoxicity control for flavivirus capping enzyme inhibitors (AID 588742); format: functional; settings: Chlorocebus sabaeus
Genome polyprotein = Genome polyprotein (dengue virus type 2, UniProt P29990); assay: Dengue-2 NS5 methyltransferase inhibitors, primary screen, biochemical, confirmation dose response (AID 588689); format: functional
SUMO-activating enzyme [12] = target: T5, SUMO-activating enzyme (Homo sapiens, UniProt Q9UBT2); assay: SUMOylation inhibitor hit validation, confirmation, SUMOylation inhibitor project, biochemical, AlphaScreen (AID 2018); format: functional
SUMO-activating enzyme [13] = target: T5, SUMO-activating enzyme; assay: inhibitors of in vitro SUMOylation cascade, primary screen, biochemical, HTRF, uHTS (AID 2006); format: protein-complex assay

Sequence of Beta-galactosidase (Q8VNN2 whole entry): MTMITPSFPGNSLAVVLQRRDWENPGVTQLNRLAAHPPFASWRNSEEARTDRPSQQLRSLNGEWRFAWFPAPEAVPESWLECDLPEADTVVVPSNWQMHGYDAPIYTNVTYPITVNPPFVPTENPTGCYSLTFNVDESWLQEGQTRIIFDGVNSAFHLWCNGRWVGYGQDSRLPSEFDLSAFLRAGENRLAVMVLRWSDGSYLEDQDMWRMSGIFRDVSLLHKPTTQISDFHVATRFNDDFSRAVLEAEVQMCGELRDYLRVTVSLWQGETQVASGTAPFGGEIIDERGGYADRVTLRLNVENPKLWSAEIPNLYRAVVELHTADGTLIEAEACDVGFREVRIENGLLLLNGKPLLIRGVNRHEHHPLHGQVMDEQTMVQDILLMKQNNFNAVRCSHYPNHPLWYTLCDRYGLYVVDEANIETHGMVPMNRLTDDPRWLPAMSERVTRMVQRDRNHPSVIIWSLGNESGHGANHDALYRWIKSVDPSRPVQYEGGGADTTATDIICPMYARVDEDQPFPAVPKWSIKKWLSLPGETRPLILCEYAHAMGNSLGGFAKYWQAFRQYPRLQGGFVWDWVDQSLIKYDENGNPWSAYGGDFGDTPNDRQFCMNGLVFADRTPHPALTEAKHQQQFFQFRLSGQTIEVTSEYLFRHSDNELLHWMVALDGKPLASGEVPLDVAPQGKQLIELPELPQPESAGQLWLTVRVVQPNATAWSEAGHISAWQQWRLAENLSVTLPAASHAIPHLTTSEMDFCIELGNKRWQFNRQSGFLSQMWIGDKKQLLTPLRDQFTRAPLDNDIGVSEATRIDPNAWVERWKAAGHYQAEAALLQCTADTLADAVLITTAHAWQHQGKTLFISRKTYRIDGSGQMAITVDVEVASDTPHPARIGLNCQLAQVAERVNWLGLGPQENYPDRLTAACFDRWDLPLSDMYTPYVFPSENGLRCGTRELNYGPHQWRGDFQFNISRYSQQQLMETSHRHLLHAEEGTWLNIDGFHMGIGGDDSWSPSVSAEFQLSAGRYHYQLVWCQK
T5 sequence (Q9UBE0 whole entry): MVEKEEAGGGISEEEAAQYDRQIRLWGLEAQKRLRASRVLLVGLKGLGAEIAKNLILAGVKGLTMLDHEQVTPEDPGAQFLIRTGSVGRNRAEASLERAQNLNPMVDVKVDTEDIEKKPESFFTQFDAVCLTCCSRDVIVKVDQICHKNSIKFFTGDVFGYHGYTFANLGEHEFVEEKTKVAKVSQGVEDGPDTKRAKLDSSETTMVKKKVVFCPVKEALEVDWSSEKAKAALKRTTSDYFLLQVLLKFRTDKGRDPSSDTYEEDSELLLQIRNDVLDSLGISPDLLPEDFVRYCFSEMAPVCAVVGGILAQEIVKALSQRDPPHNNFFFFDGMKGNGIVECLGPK
T5 sequence (Q9UBT2 whole entry): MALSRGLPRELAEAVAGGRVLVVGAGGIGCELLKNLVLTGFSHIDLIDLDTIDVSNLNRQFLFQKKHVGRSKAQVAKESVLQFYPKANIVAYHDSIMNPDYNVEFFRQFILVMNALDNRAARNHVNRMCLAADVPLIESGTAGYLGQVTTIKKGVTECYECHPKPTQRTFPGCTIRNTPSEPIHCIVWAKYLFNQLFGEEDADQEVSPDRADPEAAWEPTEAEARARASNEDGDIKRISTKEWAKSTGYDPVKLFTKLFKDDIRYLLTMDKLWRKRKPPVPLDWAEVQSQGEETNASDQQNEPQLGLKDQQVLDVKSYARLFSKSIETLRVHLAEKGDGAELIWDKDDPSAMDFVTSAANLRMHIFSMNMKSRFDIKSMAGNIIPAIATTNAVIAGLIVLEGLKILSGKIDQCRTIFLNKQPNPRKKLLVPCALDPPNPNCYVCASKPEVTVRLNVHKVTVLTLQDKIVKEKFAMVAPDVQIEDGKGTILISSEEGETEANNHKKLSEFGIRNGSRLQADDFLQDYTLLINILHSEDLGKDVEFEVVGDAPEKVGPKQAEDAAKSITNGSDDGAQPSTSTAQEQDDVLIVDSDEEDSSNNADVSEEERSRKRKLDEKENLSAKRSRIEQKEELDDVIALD
Sequence of Large T antigen (P03070 whole entry): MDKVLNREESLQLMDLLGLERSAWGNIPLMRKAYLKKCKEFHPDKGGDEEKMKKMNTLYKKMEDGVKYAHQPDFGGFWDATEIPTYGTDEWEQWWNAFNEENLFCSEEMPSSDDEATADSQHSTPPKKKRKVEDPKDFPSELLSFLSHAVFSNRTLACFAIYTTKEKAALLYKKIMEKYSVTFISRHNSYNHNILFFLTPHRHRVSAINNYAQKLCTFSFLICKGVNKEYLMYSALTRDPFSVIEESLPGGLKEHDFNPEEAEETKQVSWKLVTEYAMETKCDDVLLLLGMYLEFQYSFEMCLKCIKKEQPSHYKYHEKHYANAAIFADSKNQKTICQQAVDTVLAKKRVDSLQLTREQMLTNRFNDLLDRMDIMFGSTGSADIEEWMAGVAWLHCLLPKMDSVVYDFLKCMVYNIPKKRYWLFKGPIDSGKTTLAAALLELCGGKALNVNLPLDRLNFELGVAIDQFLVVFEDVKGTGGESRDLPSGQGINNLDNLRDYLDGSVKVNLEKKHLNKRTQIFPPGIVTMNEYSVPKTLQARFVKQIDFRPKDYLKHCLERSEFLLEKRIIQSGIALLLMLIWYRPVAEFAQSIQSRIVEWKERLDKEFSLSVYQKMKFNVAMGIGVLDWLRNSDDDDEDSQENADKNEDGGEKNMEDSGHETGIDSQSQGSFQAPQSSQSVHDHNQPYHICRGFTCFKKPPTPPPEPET
Sequence of Luciferin 4-monooxygenase (P08659 whole entry): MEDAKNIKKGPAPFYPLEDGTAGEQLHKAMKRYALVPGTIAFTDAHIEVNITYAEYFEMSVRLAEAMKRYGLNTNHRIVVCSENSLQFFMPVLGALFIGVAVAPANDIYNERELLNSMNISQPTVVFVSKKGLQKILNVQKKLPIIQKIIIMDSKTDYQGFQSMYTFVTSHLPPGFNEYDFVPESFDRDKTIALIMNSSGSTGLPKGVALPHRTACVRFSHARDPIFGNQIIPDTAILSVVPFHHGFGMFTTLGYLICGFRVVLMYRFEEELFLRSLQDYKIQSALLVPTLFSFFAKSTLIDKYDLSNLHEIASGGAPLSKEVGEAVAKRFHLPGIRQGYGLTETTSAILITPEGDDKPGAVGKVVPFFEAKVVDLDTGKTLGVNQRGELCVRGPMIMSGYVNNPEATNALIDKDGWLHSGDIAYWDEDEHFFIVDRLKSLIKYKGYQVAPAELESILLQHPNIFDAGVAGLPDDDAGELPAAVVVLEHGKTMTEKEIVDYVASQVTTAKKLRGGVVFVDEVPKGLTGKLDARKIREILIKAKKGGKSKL
Sequence of Genome polyprotein (P29990 2492-3391 limits assumed): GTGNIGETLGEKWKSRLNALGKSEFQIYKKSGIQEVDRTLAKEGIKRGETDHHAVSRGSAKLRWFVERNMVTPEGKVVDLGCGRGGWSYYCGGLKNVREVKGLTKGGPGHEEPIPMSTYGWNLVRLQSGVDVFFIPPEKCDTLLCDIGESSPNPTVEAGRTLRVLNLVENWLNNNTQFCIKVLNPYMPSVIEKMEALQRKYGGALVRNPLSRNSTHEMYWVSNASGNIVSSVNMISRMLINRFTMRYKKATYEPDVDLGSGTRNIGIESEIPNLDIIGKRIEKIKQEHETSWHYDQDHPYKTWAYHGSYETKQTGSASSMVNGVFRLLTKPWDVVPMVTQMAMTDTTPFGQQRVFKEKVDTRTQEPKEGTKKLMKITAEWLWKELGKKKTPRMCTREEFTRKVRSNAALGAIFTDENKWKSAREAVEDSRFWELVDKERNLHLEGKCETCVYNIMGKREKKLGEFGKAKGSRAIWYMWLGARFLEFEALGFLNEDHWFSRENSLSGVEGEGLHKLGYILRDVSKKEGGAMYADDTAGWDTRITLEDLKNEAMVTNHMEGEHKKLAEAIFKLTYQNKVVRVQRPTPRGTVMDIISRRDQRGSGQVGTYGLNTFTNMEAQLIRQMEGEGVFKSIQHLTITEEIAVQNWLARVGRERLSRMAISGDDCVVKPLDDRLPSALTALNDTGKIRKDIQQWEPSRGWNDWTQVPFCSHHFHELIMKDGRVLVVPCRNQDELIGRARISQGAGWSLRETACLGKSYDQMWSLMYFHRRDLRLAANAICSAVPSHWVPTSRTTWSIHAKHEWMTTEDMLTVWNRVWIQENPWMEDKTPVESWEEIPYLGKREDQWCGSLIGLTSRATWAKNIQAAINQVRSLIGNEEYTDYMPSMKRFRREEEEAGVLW
Sequence of DNA dC->dU-editing enzyme APOBEC-3G (Q9HC16 whole entry): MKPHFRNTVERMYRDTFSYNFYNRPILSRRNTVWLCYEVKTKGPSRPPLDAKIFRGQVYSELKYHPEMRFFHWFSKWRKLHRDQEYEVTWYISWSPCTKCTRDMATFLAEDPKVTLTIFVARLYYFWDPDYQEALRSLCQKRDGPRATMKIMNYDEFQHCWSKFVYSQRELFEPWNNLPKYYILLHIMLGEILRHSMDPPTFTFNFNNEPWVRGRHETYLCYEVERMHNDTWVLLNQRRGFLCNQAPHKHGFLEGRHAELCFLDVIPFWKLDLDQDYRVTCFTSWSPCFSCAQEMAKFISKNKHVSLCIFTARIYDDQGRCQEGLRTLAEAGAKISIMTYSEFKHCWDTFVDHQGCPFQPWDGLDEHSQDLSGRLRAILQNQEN
Sequence of Induced myeloid leukemia cell differentiation protein Mcl-1 (Q07820 whole entry): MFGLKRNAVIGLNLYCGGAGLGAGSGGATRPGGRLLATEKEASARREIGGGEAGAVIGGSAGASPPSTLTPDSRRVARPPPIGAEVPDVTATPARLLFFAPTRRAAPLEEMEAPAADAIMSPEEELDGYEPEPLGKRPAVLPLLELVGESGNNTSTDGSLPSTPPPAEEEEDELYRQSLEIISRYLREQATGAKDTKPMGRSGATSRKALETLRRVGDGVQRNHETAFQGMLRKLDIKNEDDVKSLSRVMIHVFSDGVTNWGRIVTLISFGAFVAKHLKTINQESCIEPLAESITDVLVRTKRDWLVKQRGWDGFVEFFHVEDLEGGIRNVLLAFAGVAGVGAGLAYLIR

O=C(Nc1nc(-c2ccccc2)c(-c2ccccc2)o1)c1ccc(F)cc1
EC50 [1]: 894 nM (active) | EC50 (Streptococcus): 1.77 µM (active) | IC50 (Beta-galactosidase): > 66.6 µM (inactive) | AC50 [2]: 7.59 µM (active)

Cc1cc(NS(=O)(=O)c2ccc(Nc3nc(-c4sc(N)nc4C)cs3)cc2)no1
EC50 [3]: 9.62 µM (active) | EC50 [4]: 7.76 µM (active) | EC50 [5]: > 112 µM (not active) | EC50 [6]: > 112 µM (not active) | AC50 (HeLa): 52.4 µM (active) | AC50 [7]: 8.48 µM (active)

Sc1nnc(NCCCN2CCOCC2)s1
IC50 (Large T antigen): 22.6 µM (active) | IC50 [8]: 22.4 µM (active)

O=C(NC(=S)Nc1ccccc1O)c1ccc(Cl)cc1Cl
EC50 [9]: > 160 µM (inconclusive) | EC50 [10]: 636 nM (active) | IC50 (Beta-galactosidase): > 66.6 µM (inactive)

Cc1cccc(N2C(=O)NC(=O)/C(=C\c3cc(C)n(-c4sc5c(c4C#N)CCCC5)c3C)C2=O)c1C
IC50 (Hexokinase HKDC1): 17.1 µM (active)

CC(C)c1ccc(S(=O)(=O)/N=C2/C=C(Sc3nc[nH]n3)C(=O)c3ccccc32)cc1
IC50 [11]: 1.35 µM (active) | IC50 (Hexokinase HKDC1): 2.88 µM (active) | CC50 (Vero): 22.2 µM (active) | IC50 (Genome polyprotein): 6.89 µM (active)

Cc1ccccc1C(=O)Nc1nnc(CC(=O)N/N=C/c2cn(Cc3ccccc3)c3ccccc23)s1
IC50 (SUMO-activating enzyme [12]): 16.8 µM (active) | IC50 (SUMO-activating enzyme [13]): 24.7 µM (active)
